Results: patent publication US7186879B2, “Screening systems and methods for identifying modulators of xenobiotic metabolism” (Baylor College of Medicine, priority 2001, dated 2007)
Entries after “also recorded” stand apart in the source; their conditions may differ.

Legend:
[1] = test system: wild-type and CAR −/− mice; conditions: acute treatment (Heubel et al.); cited from earlier work
CYP enzyme activity = test: Zoxazolamine paralysis test; conditions: for effect of pretreatment on paralysis: CAR −/− mice; for duration of zoxazolamine-induced paralysis: 3-day pretreatment, zoxazolamine 300 mg/kg i.p.; for animals that died: female CAR −/− mice after zoxazolamine; for effect of pretreatment on duration of paralysis: wild-type animals
Experimental: In these experiments, mice were pretreated for three days with PB or TCPOBOP, after which time they were given a single intraperitoneal injection of zoxazolamine (300 mg/kg). Paralysis time was recorded as the time when the mice were able to right themselves repeatedly.

murine CAR receptor = target: T1, murine CAR receptor (Mus musculus, UniProt O35627, M138L); conditions: cited from earlier work
T1 sequence (O35627 1-358 M138L): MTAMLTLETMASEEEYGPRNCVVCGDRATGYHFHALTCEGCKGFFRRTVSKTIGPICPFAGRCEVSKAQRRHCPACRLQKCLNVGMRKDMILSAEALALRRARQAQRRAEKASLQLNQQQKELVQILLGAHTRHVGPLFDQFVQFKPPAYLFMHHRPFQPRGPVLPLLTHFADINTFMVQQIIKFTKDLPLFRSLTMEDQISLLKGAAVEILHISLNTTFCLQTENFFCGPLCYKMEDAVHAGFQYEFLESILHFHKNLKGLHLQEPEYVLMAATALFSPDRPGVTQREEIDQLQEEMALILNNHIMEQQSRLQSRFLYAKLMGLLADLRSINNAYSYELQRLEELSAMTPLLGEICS

human CAR [2] = target: T2, human CAR (Homo sapiens, UniProt Q14994); test: Northern blot of gene induction in CAR humanized mice; conditions: CAR humanized animals
T2 sequence (Q14994 1-348 isoform Q14994-2): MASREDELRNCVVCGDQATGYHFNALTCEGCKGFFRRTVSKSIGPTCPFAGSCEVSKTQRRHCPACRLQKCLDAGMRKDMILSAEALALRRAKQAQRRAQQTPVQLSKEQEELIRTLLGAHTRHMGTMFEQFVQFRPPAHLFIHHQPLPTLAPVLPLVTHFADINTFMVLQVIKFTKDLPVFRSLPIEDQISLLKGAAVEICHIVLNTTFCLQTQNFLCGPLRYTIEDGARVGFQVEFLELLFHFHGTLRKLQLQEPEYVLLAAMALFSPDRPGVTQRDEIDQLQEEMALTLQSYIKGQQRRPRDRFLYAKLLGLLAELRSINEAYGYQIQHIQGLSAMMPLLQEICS
Experimental: CAR humanized mice (n=3) were treated with 500 mg/kg APAP or vehicle. After two hours, total liver RNA was prepared and subjected to Northern blot analysis with indicated probes.

human CAR [3] = target: T2, human CAR; test: Sensitivity of CAR humanized mice to APAP, serum ALT; design: expressed in transfected cells; host or cells: liver of transgenic C57BL/6 mice (line 6210, albumin promoter), crossed onto the murine CAR -/- background; conditions: CAR humanized mice pretreated three days, APAP 250 mg/kg
Experimental: FIG. 13 illustrates the sensitivity of CAR humanized mice to APAP. CAR humanized mice (n=3) were pretreated with phenobarbital (PB) or vehicle alone for three days and administered a 250 mg/kg dose of APAP by intraperitoneal injection. Serum was collected and alanine aminotransferase (ALT) levels were measured after 24 hours.

| Compound | increase in liver mass relative to total body mass [1] | effect of pretreatment on paralysis (CYP enzyme activity) | duration of zoxazolamine-induced paralysis (CYP enzyme activity; female CAR (+/+) mice) | duration of zoxazolamine-induced paralysis (CYP enzyme activity; female CAR (−/−) mice) | animals that died (CYP enzyme activity) | duration of zoxazolamine-induced paralysis (CYP enzyme activity; male CAR (+/+) mice) [min] | duration of zoxazolamine-induced paralysis (CYP enzyme activity; male CAR (−/−) mice) [min] | effect of pretreatment on duration of paralysis (CYP enzyme activity) | activity on murine CAR receptor (murine CAR receptor) | expression of CYP1A2 and CYP3A11 mRNAs (human CAR [2]) | sensitivity to APAP (human CAR [3]) |
| --- | --- | --- | --- | --- | --- | --- | --- | --- | --- | --- | --- |
| Clc1cnc(Oc2ccc(Oc3ncc(Cl)cc3Cl)cc2)c(Cl)c1 [TCPOBOP, 1,4-bis[2-(3,5-dichloropyridyloxy)]benzene] | up to 2 fold | not affected | not paralyzed | died | two animals from each group | <20 | >300 | significantly decreased the duration of paralysis | agonist ligand; also recorded: activate murine CAR | – | – |
| CCC1(c2ccccc2)C(=O)NC(=O)NC1=O [PB, phenobarbital] | – | not affected | not paralyzed | died | two animals from each group | <20 | >300 | significantly decreased the duration of paralysis | – | induced expression | increased sensitivity to APAP |
